According to patent US7396812B2, “Method for modulating Nod1 activity, use of a MTP related molecule for modulating Nod1 activity, and therapeutic applications thereof” (Institut Pasteur, priority 2003, dated 2008):
“Also recorded” adds a separate entry of the source.

Assays:
[1] = target: T1, Nod1 (Homo sapiens, UniProt Q9Y239); assay: Nod1-dependent NF-κB-luciferase activation in Nod1-overexpressing HEK293 cells; type: cell-based; parameters: expressed in transfected cells; host or cells: HEK293; conditions: for activation of Nod1 by HPLC muropeptide fractions: N. meningitidis PGN muropeptide fractions, 1% of the volume of each fraction; for detection by Nod1 (Nod1-dependent activation of NF-κB): equivalent amounts (10 ng) of muropeptide; for stimulation of the Nod1 pathway (NF-κB activation): LPS, lipid A, lipoprotein preparations, 10 μg (10 μg/ml in b180)
T1 sequence (Q9Y239 1-953): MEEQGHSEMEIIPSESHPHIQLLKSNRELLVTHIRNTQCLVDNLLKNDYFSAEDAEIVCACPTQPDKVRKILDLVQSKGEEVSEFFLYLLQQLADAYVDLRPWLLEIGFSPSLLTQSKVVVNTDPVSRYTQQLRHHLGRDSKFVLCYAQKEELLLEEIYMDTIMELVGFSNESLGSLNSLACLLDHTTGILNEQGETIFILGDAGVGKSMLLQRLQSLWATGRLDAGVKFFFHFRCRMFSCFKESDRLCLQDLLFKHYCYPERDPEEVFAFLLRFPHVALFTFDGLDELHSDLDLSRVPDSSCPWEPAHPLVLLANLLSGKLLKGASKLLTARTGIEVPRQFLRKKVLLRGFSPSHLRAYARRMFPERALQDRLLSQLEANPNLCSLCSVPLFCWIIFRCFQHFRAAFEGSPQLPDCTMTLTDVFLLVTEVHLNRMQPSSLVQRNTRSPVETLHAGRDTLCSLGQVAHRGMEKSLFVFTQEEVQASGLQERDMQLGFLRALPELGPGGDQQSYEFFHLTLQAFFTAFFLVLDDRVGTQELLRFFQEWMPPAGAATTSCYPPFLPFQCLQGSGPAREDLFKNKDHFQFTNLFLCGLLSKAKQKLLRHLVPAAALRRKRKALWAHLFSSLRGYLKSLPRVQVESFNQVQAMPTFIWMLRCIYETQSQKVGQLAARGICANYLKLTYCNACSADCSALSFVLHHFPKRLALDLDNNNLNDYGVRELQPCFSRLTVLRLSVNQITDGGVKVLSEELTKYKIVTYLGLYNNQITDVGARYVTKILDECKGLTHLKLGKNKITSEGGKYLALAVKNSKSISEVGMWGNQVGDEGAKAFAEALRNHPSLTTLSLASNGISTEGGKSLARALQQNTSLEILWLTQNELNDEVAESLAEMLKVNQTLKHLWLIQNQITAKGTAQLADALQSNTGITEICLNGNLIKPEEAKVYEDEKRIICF
Method: (§1) Studies examining the activation of NF-κB by LPS, lipid A, lipoproteins or the purified PGNs in cells over-expressing Nod1 were carried out as described by Inohara et al. (N. Inohara et al., 2001). Briefly, HEK293 cells were transfected overnight with 10 ng of Nod1. At the same time, the LPS, lipoproteins or peptidoglycan preparations were added and the NF-κB-dependent luciferase activation was then measured following 24 h of co-incubation.
(§2) NF-κB-dependent luciferase assays were performed in duplicate and data represent at least 3 independent experiments.

[2] = target: T2, Nod2 (Homo sapiens, UniProt Q9HC29); assay: Nod2-dependent activation of NF-κB; type: cell-based; conditions: equivalent amounts (10 ng) of muropeptide
T2 construct: expressed in transfected cells
Method: as §1, §2
In FIG. 2A, PGN muropeptides from N. meningitidis were separated by reverse-phase HPLC and subsequently analysed by mass spectroscopy (see supporting on-line text). N.D.(a), not determined for this particular HPLC fractionation, but found to be O-acetylated dimeric GM-tetrapeptide in subsequent HPLC fractionation and mass spectroscopy analyses. […] N.D.(b), fraction unknown. […] FIG. 2C is a schematic representation of N. meningitidis PGN detailing the Nod1-active motif from fraction 3 (GM-tripeptide) as determined by mass spectroscopy. In FIG. 2D, equivalent amounts (10 ng) of GM-dipeptide (GM-di; synthetic source), GM-tripeptide (GMtri), or GM-tetrapeptide (GM-tetra) were tested for stimulation of Nod1-, Nod2- or TLR2-dependent activation of NF-κB. […]

[3] = tested on: NF-κB p65 in isolated intestinal epithelial cells; assay: NF-κB p65 nuclear translocation in isolated intestinal epithelial cells from wild-type or Nod1-deficient mice; type: cell-based; conditions: supernatants microinjected, TNFα 10 ng/ml
Method: At least 50 microinjected cells were examined per coverslip and experiments were performed at least 2 times independently with similar results.
Microinjection of Gram-negative but not Gram-positive bacterial supernatants activates NF-κB in isolated intestinal epithelial cells from wild-type mice, as observed by nuclear translocation of the p65 subunit of NF-κB (as described in FIG. 3B).

[4] = target: T2, Nod2; conditions: previous findings, Girardin et al. 2003; Inohara et al. 2003; cited from earlier work
[5] = target: T1, Nod1; assay: Nod1-dependent IL-8 production in HeLa epithelial cells (ELISA); type: cell-based; parameters: expressed in transfected cells; conditions: HeLa cells transfected with 10 ng Nod1 plus muropeptide, 18 h
Method: To measure Nod1-dependent IL-8 produced in epithelial cells by muropeptides, 5×10^5 HeLa cells were seeded into each well of a twelve well plate and transfected the following day with 10 ng Nod1 plus the individual muropeptides (as described above) or treated with IL-1 as a positive control. Eighteen hours later, supernatants were collected and assayed for IL-8 as previously described (D. J. Philpott et al., 2000) using an ELISA kit (R and D Systems).

T2 sequence (Q9HC29 whole entry): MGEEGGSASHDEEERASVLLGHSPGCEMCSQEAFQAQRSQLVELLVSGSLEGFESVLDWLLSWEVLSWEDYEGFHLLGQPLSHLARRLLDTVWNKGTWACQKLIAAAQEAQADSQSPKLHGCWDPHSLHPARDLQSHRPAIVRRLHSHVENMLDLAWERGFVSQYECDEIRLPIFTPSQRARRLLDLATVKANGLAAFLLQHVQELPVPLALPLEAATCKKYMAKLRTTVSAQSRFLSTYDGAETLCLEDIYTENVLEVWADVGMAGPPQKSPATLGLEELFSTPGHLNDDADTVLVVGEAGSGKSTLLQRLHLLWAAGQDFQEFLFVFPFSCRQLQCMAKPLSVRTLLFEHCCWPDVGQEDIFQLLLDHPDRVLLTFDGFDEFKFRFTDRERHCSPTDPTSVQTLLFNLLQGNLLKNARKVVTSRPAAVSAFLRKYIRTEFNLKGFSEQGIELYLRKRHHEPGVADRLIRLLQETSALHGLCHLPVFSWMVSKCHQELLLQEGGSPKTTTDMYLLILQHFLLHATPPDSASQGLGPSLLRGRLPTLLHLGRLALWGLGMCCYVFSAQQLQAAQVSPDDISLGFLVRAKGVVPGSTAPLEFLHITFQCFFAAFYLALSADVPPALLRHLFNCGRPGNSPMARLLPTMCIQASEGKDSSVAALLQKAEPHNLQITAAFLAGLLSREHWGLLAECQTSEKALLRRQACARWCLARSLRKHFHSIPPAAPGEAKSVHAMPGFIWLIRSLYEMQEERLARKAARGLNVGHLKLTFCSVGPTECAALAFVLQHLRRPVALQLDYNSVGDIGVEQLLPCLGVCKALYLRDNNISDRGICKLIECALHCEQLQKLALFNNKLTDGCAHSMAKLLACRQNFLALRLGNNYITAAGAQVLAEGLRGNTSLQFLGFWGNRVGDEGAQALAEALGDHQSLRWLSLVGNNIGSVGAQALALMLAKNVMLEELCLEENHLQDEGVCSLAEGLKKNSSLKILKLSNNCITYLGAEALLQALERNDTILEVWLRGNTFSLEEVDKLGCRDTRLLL

Molecule: C[C@H](N)C(=O)N[C@H](CCC(=O)NC(CCCC(N)C(=O)O)C(=O)O)C(=O)O (stereo partly drawn) [tripeptide L-Ala-D-Glu-mesoDAP, L-Ala-D-Glu-mesoDAP]
- detection by Nod1 of peptidoglycan structures (FIG. 8) [1]: able to sense

Molecule: GlcNAc-anhydro-MurNAc-L-Ala-D-GlumesoDAP [anhydrous GM-tripeptide]
- activation of Nod1 by HPLC muropeptide fractions [1]: active molecule in fraction 17

Molecule: CC(=O)N[C@H]1[C@H](O[C@H]2[C@H](O[C@H](C)C(=O)N[C@@H](C)C(=O)N[C@H](CCC(=O)O)C(N)=O)[C@@H](NC(C)=O)C(O)O[C@@H]2CO)O[C@H](CO)[C@@H](O)[C@@H]1O (stereo partly drawn) [GM-dipeptide]
- detection by Nod2 (Nod2-dependent activation of NF-κB) [2]: detects

Molecule: GlcNAc-MurNAc-L-Ala-D-Glu-mesoDAP-DAla [GM-tetrapeptide]
- detection by Nod1 (Nod1-dependent activation of NF-κB) [1]: not sensed by Nod1

Molecule: Pam3Cys-Ser-Lys4-OH [synthetic lipopeptide]
- stimulation of the Nod1 pathway (NF-κB activation) [1]: not possible to stimulate the Nod1 pathway
- stimulation of the Nod1 pathway (NF-κB activation) ([1]; listed as lipopeptide): fail to activate the Nod1 pathway

Molecule: TNFα
- NF-κB nuclear translocation in Nod1-deficient cells [3]: can efficiently stimulate NF-κB nuclear translocation

Molecule: GlcNAc-MurNAc-L-Ala-D-Glu-mesoDAP(GlcNAc-MurNAc-L-Ala-D-Glu-mesoDAP-D-Ala)-D-Ala [dimeric GM-tetrapeptide]
- activation of Nod1 by HPLC muropeptide fractions [1]: does not activate Nod1

Molecule: C[C@H](N)C(=O)N[C@H](CCC(=O)NC(CCCC(N)C(=O)O)C(=O)O)C(=O)O (stereo partly drawn) [TriDAP]
- detection by Nod1 of peptidoglycan structures (FIG. 8) [1]: detects

Molecule: CC(=O)N[C@H]1[C@@H](OP(=O)(O)OP(=O)(O)OC[C@H]2O[C@@H](n3ccc(=O)[nH]c3=O)[C@H](O)[C@@H]2O)O[C@H](CO)[C@@H](O)[C@@H]1O[C@H](C)C(=O)N[C@@H](C)C(=O)N[C@H](CCC(=O)N[C@@H](CCC[C@@H](N)C(=O)O)C(=O)O)C(=O)O [UDP-MurTriDAP]
- detection by Nod1 of peptidoglycan structures (FIG. 8) [1]: detects

Molecule: CC(=O)N[C@@H]1[C@@H](O[C@H](C)C(=O)N[C@@H](C)C(=O)N[C@H](CCC(=O)O)C(N)=O)[C@H](O)[C@@H](CO)O[C@H]1O [M-dipeptide]
- recognition by Nod2 [4]: recognizes

Molecule: CC(=O)NC1C(O)OC(CO)C(O)C1OC(C)C(=O)NC(C)C(=O)NC(CCC(=O)NC(CCCC(N)C(=O)O)C(=O)O)C(=O)O (stereo not drawn) [MurTriDAP]
- detection by Nod1 of peptidoglycan structures (FIG. 8) [1]: detects

Molecule: GlcNAc-MurNAc-L-Ala-D-Glu-mesoDAP [GM-tripeptide]
- production of IL-8 [5]: production of the pro-inflammatory chemokine, IL-8; also recorded: leads to the production
- detection by Nod1 of peptidoglycan structures (FIG. 8) [1]: detects
- activation of Nod1 by HPLC muropeptide fractions ([1]; listed as fraction 3): activates Nod1; also recorded: able to activate Nod1
- detection by Nod1 (Nod1-dependent activation of NF-κB) [1]: specifically detects

Molecule: lipid A
- stimulation of the Nod1 pathway (NF-κB activation) [1]: could not stimulate the Nod1 pathway

Molecule: Lpp: the most abundant lipoprotein in E. coli (lipidated)
- stimulation of the Nod1 pathway (NF-κB activation) [1]: fail to activate the Nod1 pathway; also recorded: not possible to stimulate the Nod1 pathway
